In data set [1] the test system is human umbilical cord primary endothelial cells (HUVEC). As to the kind of experiment: In vitro proliferation assay to test toxicity (Assay 2, crystal violet staining). Type of data set: cell-based. The conditions noted are these: 10 μM up to 40 μM final concentration, 72 h, FIG. 2. From the text:
(§1) The BXPC3 cell line from primary adenocarcinoma of human pancreas was provided by the Biomedical Research Institute (IRB) of Barcelona, and human umbilical cord primary endothelial cells (HUVEC) were obtained directly by the investigator and stored in liquid nitrogen in the laboratory. BXPC3 cells were maintained in RPMI-1640 culture medium (Gibco) supplemented with 10% fetal bovine serum and antibiotics. HUVEC cells were maintained in M199 culture medium (Gibco) supplemented with 20% fetal bovine serum, endothelial cell growth supplement (ECGS), Heparin (Hep) and antibiotics. Cultures were maintained in the cell incubator in a humid atmosphere at 37° C. containing 5% CO2.
(§2) The different peptides to be tested were easily dissolved in DMSO at a concentration of 50 mM and subsequently a 5 mM intermediate dilution was prepared in Dulbecco's PBS which was subjected to two short cycles of sonication, which retendered the peptides completely soluble. […]
(§3) Assays with the different peptides were performed following the protocol explained below. […] Once resuspended in culture medium, they were counted in Newbauer's chamber after a 1:1 dilution with trypan blue. […]
The optical density values per well were obtained by a Biotek Synergy™2 multi-detection microplate reader, using a 590 nm filter and by scanning reading, obtaining the mean values per well.

The subject of data set [2] is human pancreatic tumor cell line BXPC3. Description: In vitro proliferation assay, cancer growth-inhibitory activity (Assay 1, crystal violet staining). In kind it is cell-based. The note with it: BXPC3 cells, peptide 20 μM final concentration, 72 h, FIG. 1-A.
From the text: as §1, §2, §3
The optical density values per well were obtained by a Biotek Synergy™2 multi-detection microplate reader, using a 590 nm filter and by scanning reading, obtaining the mean values per well. […]

No end group written: not given here.

“Ac-CFEISKY-NH2 [Peptide P1C, CH3-C(O)-CFEISKY-NH2]”: the “effect on the growth of normal non-transformed cells (toxicity)” value in data set [1] is on record as “did not affect the growth”.

Take “CFEISKY-NH2 [Peptide P1A, variant of the P1C peptide wherein the N-terminal end is free and the C-terminal end is amidated]”: in data set [2], the “inhibitory capacity on cancer cell growth (in words)” value was “remarkable inhibitory capacity”. “CH3-C(O)-CFEVSKY-NH2 (Ac-CFEVSKY-NH2) [Peptide P1B, variant of the P1C peptide wherein the isoleucine is substituted by a valine]”: the “inhibitory capacity on cancer cell growth (in words)” value in data set [2] is recorded as “remarkable inhibitory capacity”.

The values above are taken from US11214593B2, “Anticancer peptides and uses thereof” (SUIGENERIS FARMACOSMETICS, S.L., priority 2017, dated 2022).
